This is an account of results in EPA's ToxValDB 9.5 (doi:10.2903/j.efsa.2015.4100).

Converted amounts (≈) assume the structure as drawn. Some results are limits rather than exact numbers.

In general, NOAEL refers to the highest tested level that showed no adverse finding. For orientation: LOAEL means the lowest tested level that showed an adverse finding.

The test system of one data set is Pimephales promelas. To be noted: chronic/long-term; duration: 32 days; reproduction.
A further data set has as its system Bibionidae. Conditions: chronic/long-term; duration: 28 days; reproduction.
A further data set concerns Neomysis kadiakensis. Conditions: mortality.
Another data set concerns Daphnia magna. Conditions: chronic/long-term; duration: 21 days; reproduction.
The next data set deals with Oncorhynchus mykiss. To be noted: acute; duration: 96 hours; mortality.
In the next data set the test system is Canidae. To be noted: chronic; duration: 52 weeks; oral; Dog Other; organ weight.
In the next data set the test system is Apis mellifera. To be noted: acute, mortality.
A further data set has as its system Typhlodromus pyri. The experiment in a line: LR50; higher = less toxic. Conditions: not reported; mortality.
For another data set, the system named is Aphidius rhopalosiphi. The data set is described as follows: LR50; higher = less toxic. To be noted: not reported; mortality.

Consider `CNC(=O)C(OC)c1ccccc1COc1cc(C)ccc1C` (centres undefined) [Mandestrobin], for which the NOEC in the data set on Pimephales promelas amounted to 0.15 mg/L; in the data set on Bibionidae, 8.1 mg/L; in the data set with Neomysis kadiakensis (chronic/long-term, duration: 36 days), 0.0036 mg/L; with Daphnia magna it was 0.56 mg/L; in the data set on Tagia sp. (chronic/long-term, duration: 56 days), 3.75 mg/kg; in the data set with Colinus virginianus (reproduction developmental, duration: 21 weeks, reproduction), 91.1 mg/kg-day. The LC50 is 0.43 µg/mL (≈ 1.37 µM) with Neomysis kadiakensis (acute, duration: 96 hours); 0.84 µg/mL (≈ 2.68 µM) in the data set on Oncorhynchus mykiss; 84 mg/kg with Tagia sp. (acute, duration: 14 days, mortality); greater than 1340 mg/kg-day in the data set with Colinus virginianus (acute, duration: 8 days, oral, diet, mortality). Also, the NOAEL was determined as 19 mg/kg-day in the data set on Canidae and 163 mg/kg-day with Rattus norvegicus (reproduction developmental). In addition, the LD50 is greater than 100 µg/piece in the data set with Apis mellifera (dermal); greater than 111 µg/piece with Apis mellifera (oral, unspecified); greater than 200 mg/kg-day in the data set with Rattus norvegicus (acute, oral, mortality); greater than 2250 mg/kg-day in the data set with Colinus virginianus (acute, oral, mortality). Also, the LOAEL with Rattus norvegicus (reproduction developmental, organ weight) turned out to be 60.2 mg/kg-day. In addition, the LR50 in the data set with Typhlodromus pyri and with Aphidius rhopalosiphi was greater than 1000 g/ha in each case.
